Data set [1] is described as follows: Solubility in water or saline at room temperature, visual inspection. It is filed as physicochemical. Conditions: Solubility in water mg/ml. The text has this: Samples were visually inspected for clarity of the sample, any appearance of turbidity or haziness.
Data set [2] is described as follows: Stability in water or saline at 37° C. and room temperature, 30 days, LC/MS and HPLC purity. The format is physicochemical. An excerpt:
Samples were withdrawn at a regular interval for 30 days and analyzed by LC/MS and HPLC for determination of purity and mass of the degradation product.

Another data set in a line: in vivo. Conditions: male, rat.
For a further data set, the target named is human GLP-1R (Homo sapiens, UniProt P43220). The data set is described as follows: Peptide-receptor mediated cAMP accumulation (LANCE Ultra cAMP) in CHO-K1 cells transfected with human GLP-1R. The format is cell-based.
Sequence of human GLP-1R (P43220 24-463): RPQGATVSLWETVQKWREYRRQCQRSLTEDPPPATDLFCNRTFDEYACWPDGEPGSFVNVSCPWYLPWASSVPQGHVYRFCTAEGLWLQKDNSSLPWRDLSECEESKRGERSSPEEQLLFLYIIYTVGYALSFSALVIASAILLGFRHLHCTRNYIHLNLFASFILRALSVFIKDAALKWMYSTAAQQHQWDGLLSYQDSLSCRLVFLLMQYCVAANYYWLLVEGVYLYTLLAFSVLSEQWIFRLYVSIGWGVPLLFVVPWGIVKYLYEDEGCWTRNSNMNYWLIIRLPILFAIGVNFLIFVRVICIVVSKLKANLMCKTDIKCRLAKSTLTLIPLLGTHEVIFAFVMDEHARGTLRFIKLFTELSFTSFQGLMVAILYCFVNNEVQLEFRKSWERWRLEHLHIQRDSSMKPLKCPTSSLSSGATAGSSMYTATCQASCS
A further data set has as its target human GCGR (Homo sapiens, UniProt P47871). Kind of data set: Peptide-receptor mediated cAMP accumulation (LANCE Ultra cAMP) in CHO-K1 cells transfected with human GCGR. It is filed as cell-based.
Data set [3] can be described thus: Clearance following intravenous infusion, acylated peptides (1-hour infusion, 0.033 mg/kg). The settings on record: rat, in vivo.
[4] abbreviates: hGLP1 pEC50 (cAMP mean (n = 3): 11 point curve starting at 1 nM, Table 3).
The mark [5] stands for this setting: hGLP1 pEC50 (cAMP) mean (n = 3): 11 point curve starting at 1 nM, Table 2B.
The mark [6] stands for this setting: read-out: GluR pEC50 (converted).
[7] abbreviates: Table 7, GLP-1R, read-out: GLP-1R pEC50 (converted).

Read-outs that look alike come from different tables or passages of the source. *1 amine or outer side, *2 acyl side, *3 side chain or, on linkers, in order; H or OH if unused. Where a SMILES comes first, the peptide text is derived from it. Side-chain parts run from the residue outwards. [ ]: non-standard residue; d: D form. The star is where a group is joined. γGlu = O=C(O)[C@H](CCC(=O)[*:2])N[*:1]; Palmitoyl = CCCCCCCCCCCCCCCC(=O)*; Aib = CC(C)(N)C(=O)O

Sequence of human GCGR (P47871 26-477): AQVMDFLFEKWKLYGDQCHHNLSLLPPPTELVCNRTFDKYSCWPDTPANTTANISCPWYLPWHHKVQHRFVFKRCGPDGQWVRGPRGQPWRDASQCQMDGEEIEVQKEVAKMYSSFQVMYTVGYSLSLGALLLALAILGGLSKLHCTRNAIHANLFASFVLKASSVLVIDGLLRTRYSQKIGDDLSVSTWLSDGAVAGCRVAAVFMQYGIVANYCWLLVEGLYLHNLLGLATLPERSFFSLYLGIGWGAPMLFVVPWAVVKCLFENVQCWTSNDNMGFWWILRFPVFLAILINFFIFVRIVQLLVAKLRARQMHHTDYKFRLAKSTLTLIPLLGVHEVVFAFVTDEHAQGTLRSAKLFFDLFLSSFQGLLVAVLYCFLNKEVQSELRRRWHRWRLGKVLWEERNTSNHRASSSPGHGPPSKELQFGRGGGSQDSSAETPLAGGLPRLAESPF
Experimental for in vivo: Peptides were formulated in sterile saline and administered as a 3-hour intravenous infusion to non-fasted male Wistar Han or Sprague-Dawley rats (n=3 per group) via jugular vein cannula at a final dose of 0.3 or 0.1 mg/kg. […] Plasma was prepared by centrifugation and stored at −80° C. until analysis.
Protein Precipitation: All 96-well plates were coated with a blocking agent to mitigate non-specific binding of peptides. Plasma samples (75 uL) were added to a 96-well plate containing 200 uL of 2:1 ethanol:acetonitrile containing 0.1% TFA and mixed well via aspiration. Plates were capped, vortex-mixed and centrifuged. Supernatants (215 uL) were transferred to a clean 96-well plate, evaporated to dryness under nitrogen flow and then reconstituted in 75 μL of 20% acetonitrile in water containing 0.10% formic acid.
Solid-Phase Extraction: Samples were diluted 3-fold with 5% NH4OH (aq) and loaded onto an Oasis MAX microElution plate (Waters Corp, Milford, MA) that had been pre-conditioned with 200 uL each of methanol and 5% NH4OH (aq). The plate was washed with 200 uL 5% NH4OH (aq), followed by 200 uL 20% acetonitrile in water. […] Samples were reconstituted in 80 uL 0.1% formic acid in water.
All calibration standards were prepared in control rat plasma containing K2EDTA and protease inhibitor cocktail. […] Samples were injected onto a 2.1×50 mm reverse phase C18 analytical column, typically a Waters ACQUITY UPLC™ HSS T3, 1.8 μm (Waters Corporation, Milford, MA) or similar. […] Typical flow rates were 600 L/min. The column temperature was held constant at 40 or 45° C. Peptides were quantified my monitoring one or more product ions produced from a multiply charged parent ion.

Turning to `CC(C)C[C@H](NC(=O)[C@H](Cc1ccc(O)cc1)NC(=O)[C@H](CCCCN)NC(=O)[C@H](CO)NC(=O)[C@H](Cc1ccc(O)cc1)NC(=O)[C@H](CC(=O)O)NC(=O)[C@H](CO)NC(=O)[C@@H](NC(=O)[C@H](Cc1ccccc1)NC(=O)[C@@H](NC(=O)CNC(=O)[C@H](Cc1c[nH]cn1)NC(=O)[C@H](CO)NC(=O)[C@@H](N)Cc1ccc(O)cc1)[C@@H](C)O)[C@@H](C)O)C(=O)N[C@@H](CC(=O)O)C(=O)N[C@@H](C)C(=O)N[C@@H](C)C(=O)N[C@@H](CCCNC(=N)N)C(=O)N[C@@H](C)C(=O)N[C@@H](CCC(N)=O)C(=O)N[C@@H](CCC(=O)O)C(=O)N[C@@H](Cc1ccccc1)C(=O)N[C@H](C(=O)N[C@@H](CCCCN)C(=O)N[C@@H](Cc1c[nH]c2ccccc12)C(=O)N[C@@H](CC(C)C)C(=O)N[C@@H](CCC(=O)O)C(=O)N[C@@H](CC(=O)O)C(=O)N[C@@H](CCC(=O)O)C(=O)N1CCC[C@H]1C(=O)N[C@@H](CO)C(=O)N[C@@H](CO)C(=O)NCC(=O)N[C@@H](C)C(=O)N1CCC[C@H]1C(=O)N1CCC[C@H]1C(=O)N1CCC[C@H]1C(=O)N[C@@H](CO)C(=O)O)C(C)C` [Compound A97] (H-YSHGTFTSDYSKYLDAARAQEFVKWLEDEPSSGAPPPS-OH; N-terminus assumed), the solubility in data set [1] was > 200 mg/mL. Further, in data set [2], the “Stability 1 mg/ml in water at 37 degC” value is >59%. In the data set “in vivo”, the clearance is 18.9 mL/min/kg. Besides, the EC50 on human GLP-1R (setting [4]) and at human GLP-1R (setting [5]) was > 1 nM each time.
For the molecule `CC(C)C[C@H](NC(=O)[C@H](Cc1c[nH]c2ccccc12)NC(=O)[C@H](CCCCN)NC(=O)[C@@H](NC(=O)[C@H](Cc1ccccc1)NC(=O)[C@H](CCC(=O)O)NC(=O)[C@H](CCC(N)=O)NC(=O)[C@H](C)NC(=O)[C@H](CCCNC(=N)N)NC(=O)[C@H](CCCCN)NC(=O)C(C)(C)NC(=O)[C@H](CC(=O)O)NC(=O)[C@H](CC(C)C)NC(=O)[C@H](Cc1ccc(O)cc1)NC(=O)[C@H](CCCCN)NC(=O)[C@H](CO)NC(=O)[C@H](Cc1c[nH]cn1)NC(=O)[C@H](CC(=O)O)NC(=O)[C@H](CO)NC(=O)[C@@H](NC(=O)[C@H](Cc1ccccc1)NC(=O)[C@@H](NC(=O)CNC(=O)[C@H](Cc1c[nH]cn1)NC(=O)CNC(=O)[C@@H](N)Cc1ccc(O)cc1)[C@@H](C)O)[C@@H](C)O)C(C)C)C(=O)N[C@@H](CCC(=O)O)C(=O)N[C@@H](CC(=O)O)C(=O)N[C@@H](CCC(=O)O)C(=O)O` [Compound A101] (H-YGHGTFTSDHSKYLD[Aib]KRAQEFVKWLEDE-OH; N-terminus assumed), the solubility in data set [1] was > 200 mg/mL. The “Stability 1 mg/ml in water at 37 degC” value in data set [2] is listed as >50%. In addition, the EC50 is 5.01 pM at human GCGR (Table 2B), > 1 nM on human GLP-1R (setting [4]) and > 1 nM at human GLP-1R (setting [5]). Also, in the data set “FIGURE 2A”, the “CL” value is 88.3 ± 9.0 mL/min/kg.
On to `CC(C)C[C@H](NC(=O)[C@H](Cc1c[nH]c2ccccc12)NC(=O)[C@H](CCCCN)NC(=O)[C@@H](NC(=O)[C@H](Cc1ccccc1)NC(=O)[C@H](CCC(=O)O)NC(=O)[C@H](CCC(N)=O)NC(=O)[C@H](C)NC(=O)[C@H](CCCNC(=N)N)NC(=O)[C@H](CCCCN)NC(=O)[C@H](CO)NC(=O)[C@H](CCC(=O)O)NC(=O)[C@H](CC(C)C)NC(=O)[C@H](CC(C)C)NC(=O)[C@H](CCCNC(=N)N)NC(=O)[C@@H](NC(=O)[C@H](Cc1ccc(O)cc1)NC(=O)[C@H](CC(=O)O)NC(=O)[C@H](CO)NC(=O)[C@@H](NC(=O)[C@H](Cc1ccccc1)NC(=O)[C@@H](NC(=O)CNC(=O)[C@H](Cc1c[nH]cn1)NC(=O)[C@H](CO)NC(=O)[C@@H](N)Cc1ccc(O)cc1)[C@@H](C)O)[C@@H](C)O)[C@@H](C)O)C(C)C)C(=O)N[C@@H](CCC(=O)O)C(=O)N[C@@H](CC(=O)O)C(=O)N[C@@H](CCC(=O)O)C(=O)N1CCC[C@H]1C(=O)N[C@@H](CO)C(=O)N[C@@H](CO)C(=O)NCC(=O)N[C@@H](C)C(=O)N1CCC[C@H]1C(=O)N1CCC[C@H]1C(=O)N1CCC[C@H]1C(=O)N[C@@H](CO)C(=O)O` [Compound A98] (H-YSHGTFTSDYTRLLESKRAQEFVKWLEDEPSSGAPPPS-OH; N-terminus assumed), for which the solubility in data set [1] is > 200 mg/mL. The “Stability 1 mg/ml in water at 37 degC” value in data set [2] is >75%. Also, the EC50 at human GLP-1R (setting [4]) and at human GLP-1R (setting [5]) was > 1 nM throughout. Besides, in the data set “FIGURE 2A”, the “CL” value is on record as 51.5 ± 13.4 mL/min/kg.
As for `CC(C)C[C@H](NC(=O)[C@H](Cc1c[nH]c2ccccc12)NC(=O)[C@H](CCCCN)NC(=O)[C@@H](NC(=O)[C@H](Cc1ccccc1)NC(=O)[C@H](CCC(=O)O)NC(=O)[C@H](CCC(N)=O)NC(=O)[C@H](C)NC(=O)[C@H](CCCNC(=N)N)NC(=O)[C@H](CCCCN)NC(=O)C(C)(C)NC(=O)[C@H](CC(=O)O)NC(=O)[C@H](CC(C)C)NC(=O)[C@H](Cc1c[nH]c2ccccc12)NC(=O)[C@H](CCCCN)NC(=O)[C@H](CO)NC(=O)[C@H](Cc1ccc(O)cc1)NC(=O)[C@H](CC(=O)O)NC(=O)[C@H](CO)NC(=O)[C@@H](NC(=O)[C@H](Cc1ccccc1)NC(=O)[C@@H](NC(=O)CNC(=O)[C@H](Cc1c[nH]cn1)NC(=O)[C@H](CO)NC(=O)[C@@H](N)Cc1ccc(O)cc1)[C@@H](C)O)[C@@H](C)O)C(C)C)C(=O)N[C@@H](CCC(=O)O)C(=O)N[C@@H](CC(=O)O)C(=O)N[C@@H](CCC(=O)O)C(=O)O` [Compound A102] (H-YSHGTFTSDYSKWLD[Aib]KRAQEFVKWLEDE-OH; N-terminus assumed), the solubility in data set [1] was > 200 mg/mL. For the same molecule, the “Stability 1 mg/ml in water at 37 degC” value in data set [2] was >51%. Further, the EC50 at human GLP-1R (setting [4]) and on human GLP-1R (setting [5]) was > 1 nM in each case. In addition, the “CL” value in the data set “FIGURE 2A” came to 97.2 ± 6.3 mL/min/kg.
On to `CCCCCCCCCCCCCCCC(=O)N[C@@H](CCC(=O)NCCCC[C@H](NC(=O)[C@H](CO)NC(=O)[C@H](CO)NC(=O)[C@@H]1CCCN1C(=O)[C@H](CCC(=O)O)NC(=O)[C@H](CC(=O)O)NC(=O)[C@H](CCC(=O)O)NC(=O)[C@H](CC(C)C)NC(=O)[C@H](Cc1c[nH]c2ccccc12)NC(=O)C(C)(C)NC(=O)[C@@H](NC(=O)[C@H](Cc1ccccc1)NC(=O)[C@H](CCC(=O)O)NC(=O)[C@H](CCC(N)=O)NC(=O)[C@H](C)NC(=O)[C@H](CO)NC(=O)[C@H](CCCCN)NC(=O)C(C)(C)NC(=O)[C@H](CC(=O)O)NC(=O)[C@H](CC(C)C)NC(=O)[C@H](Cc1ccc(O)cc1)NC(=O)[C@H](CCCCN)NC(=O)[C@H](CO)NC(=O)[C@H](Cc1ccc(O)cc1)NC(=O)[C@H](CC(=O)O)NC(=O)[C@H](CO)NC(=O)[C@@H](NC(=O)[C@H](Cc1ccccc1)NC(=O)[C@@H](NC(=O)CNC(=O)[C@H](Cc1c[nH]cn1)NC(=O)[C@H](CO)NC(=O)[C@@H](N)Cc1ccc(O)cc1)[C@@H](C)O)[C@@H](C)O)C(C)C)C(=O)N[C@@H](C)C(=O)N1CCC[C@H]1C(=O)N1CCC[C@H]1C(=O)N1CCC[C@H]1C(=O)N[C@@H](CO)C(=O)O)C(=O)O` [Compound B9], for which, in data set [3], the clearance amounted to 0.594 mL/min/kg and the half-life was 299 min. The EC50 on human GCGR (setting [6]) was 7.94 pM. The EC50 on human GLP-1R (setting [7]) was > 1000 nM.
The molecule `CCCCCCCCCCCCCCCC(=O)N[C@@H](CCC(=O)NCCCC[C@H](NC(=O)[C@H](CO)NC(=O)[C@H](CO)NC(=O)[C@@H]1CCCN1C(=O)[C@H](CCC(=O)O)NC(=O)[C@H](CC(=O)O)NC(=O)[C@H](CCC(=O)O)NC(=O)[C@H](CC(C)C)NC(=O)[C@H](Cc1c[nH]c2ccccc12)NC(=O)[C@H](CCCCN)NC(=O)[C@@H](NC(=O)[C@H](Cc1ccccc1)NC(=O)[C@H](CCC(=O)O)NC(=O)[C@H](CCC(N)=O)NC(=O)[C@H](C)NC(=O)[C@H](CCCNC(=N)N)NC(=O)[C@H](C)NC(=O)[C@H](CO)NC(=O)[C@H](CC(=O)O)NC(=O)[C@H](CC(C)C)NC(=O)[C@H](Cc1ccc(O)cc1)NC(=O)[C@H](CCCCN)NC(=O)[C@H](CO)NC(=O)[C@H](Cc1ccc(O)cc1)NC(=O)[C@H](CC(=O)O)NC(=O)[C@H](CO)NC(=O)[C@@H](NC(=O)[C@H](Cc1ccccc1)NC(=O)[C@@H](NC(=O)CNC(=O)[C@H](Cc1c[nH]cn1)NC(=O)[C@H](CO)NC(=O)[C@@H](N)Cc1ccc(O)cc1)[C@@H](C)O)[C@@H](C)O)C(C)C)C(=O)N[C@@H](C)C(=O)N1CCC[C@H]1C(=O)N1CCC[C@H]1C(=O)N1CCC[C@H]1C(=O)N[C@@H](CO)C(N)=O)C(=O)O` [Compound B41] (H-YSHGTFTSDYSKYLDSARAQEFVKWLEDEPSSK([γGlu-Palmitoyl])APPPS-NH2) yielded a clearance in data set [3] of 4.86 mL/min/kg. The molecule also gave a half-life in data set [3] of 65.4 min. The figures for the EC50 on human GCGR (setting [6]) and on human GLP-1R (setting [7]) were 25.1 pM and > 1000 nM, respectively.
For `CC(C)C[C@H](NC(=O)[C@H](Cc1ccc(O)cc1)NC(=O)[C@H](CCCCN)NC(=O)[C@H](CO)NC(=O)[C@H](Cc1ccc(O)cc1)NC(=O)[C@H](CC(=O)O)NC(=O)[C@H](CO)NC(=O)[C@@H](NC(=O)[C@H](Cc1ccccc1)NC(=O)[C@@H](NC(=O)CNC(=O)[C@H](Cc1c[nH]cn1)NC(=O)[C@H](CO)NC(=O)[C@@H](N)Cc1ccc(O)cc1)[C@@H](C)O)[C@@H](C)O)C(=O)N[C@@H](CC(=O)O)C(=O)NC(C)(C)C(=O)N[C@@H](CCCCN)C(=O)N[C@@H](CCCNC(=N)N)C(=O)N[C@@H](C)C(=O)N[C@@H](CCC(N)=O)C(=O)N[C@@H](CCC(=O)O)C(=O)N[C@@H](Cc1ccccc1)C(=O)N[C@H](C(=O)NC(C)(C)C(=O)N[C@@H](Cc1c[nH]c2ccccc12)C(=O)N[C@@H](CC(C)C)C(=O)N[C@@H](CCC(=O)O)C(=O)N[C@@H](CC(=O)O)C(=O)N[C@@H](CCC(=O)O)C(=O)O)C(C)C` [Compound A100], the solubility in data set [1] was > 200 mg/mL. Also, in data set [2], the “Stability 1 mg/ml in water at 37 degC” value is >69%. For the same molecule, the EC50 at human GLP-1R (setting [4]) and at human GLP-1R (setting [5]) was > 1 nM in each case. Moreover, in the data set “FIGURE 2A”, the “CL” value came to 120 ± 39 mL/min/kg.

Source of the values: patent publication US20240239861A1, “GLUCAGON-RECEPTOR SELECTIVE POLYPEPTIDES AND METHODS OF USE THEREOF” (i2O Therapeutics, Inc., priority 2016, published 2024).
